What follows are compounds tested against T1, glycine site of the NMDA receptor (Rattus norvegicus, UniProt P35439) (assay: Binding affinity for the glycine site of the NMDA receptor (test (a))). Conditions: displacement of a selective glycine site radioligand ([3H]-L-689,560) from rat brain membranes, tris-acetate buffer pH 7.4, 90 minutes.
T1 construct: rat brain membranes; from tissue; host or cells: rat brain membranes
Protocol: (a) Binding affinity for the glycine site of the NMDA receptor
This may be measured by testing a compound's ability to displace a selective glycine site radioligand from rat brain membranes as described in Brit J Pharm (1991), 104, 74. In a variation of this method, thoroughly washed membrane protein is incubated with [^3 H]-L-689,560 for 90 minutes using tris-acetate buffer (pH 7.4). Displacement of the radioligand, using a range of test compound concentrations, is used to derive IC50 (50% inhibitory concentration) values.

Compound	IC50 [nM]
CS(=O)(=O)NCCN(c1c(Cl)c(Cl)cc2[nH]c(=O)c(=O)[nH]c12)S(C)(=O)=O [Example 1, N-(1,4-Dihydro-6,7-dichloro-2,3-dioxoquinoxalin-5-yl)-N-(2-(N'-methanesulphonyl)-aminoethyl)methanesulphonamide]	< 100
Cc1c(Cl)cc2[nH]c(=O)c(=O)[nH]c2c1N(CCNS(=O)(=O)C(F)(F)F)S(C)(=O)=O [Example 4]	< 100
Cn1cnc(S(=O)(=O)NCCN(c2c(Cl)c(Cl)cc3[nH]c(=O)c(=O)[nH]c23)S(C)(=O)=O)c1 [Example 2, N-(1,4-Dihydro-6,7-dichloro-2,3-dioxoquinoxalin-5-yl)-N-(2-(N'-4-(1H-1-methylimidazolyl)sulphonyl)aminoethyl)methanesulphonamide]	< 100
CCCOC(=O)CN(c1c(C)c(C)cc2[nH]c(=O)c(=O)[nH]c12)S(C)(=O)=O [Example 12]	< 100

Next, values leading:

IC50 [nM]	Compound
< 100	Cc1cc2[nH]c(=O)c(=O)[nH]c2c(N(CC(=O)O)S(C)(=O)=O)c1C [Example 7, N-(Carboxymethyl)-N-(1,4dihydro-6,7-dimethyl-2,3-dioxoquinoxalin-5-yl)methanesulphonamide]
< 100	Cc1c(Cl)cc2[nH]c(=O)c(=O)[nH]c2c1N(CC(=O)O)S(C)(=O)=O [Example 3, N-(Carboxymethyl)-N-(1,4-dihydro-7-chloro-6-methyl-2,3-dioxoquinoxalin-5-yl)methanesulphonamide]
< 100	Cc1cc2[nH]c(=O)c(=O)[nH]c2c(N(CC(=O)O)S(C)(=O)=O)c1Cl [5 [the (-)-isomer]]
< 100	CCOC(=O)CN(c1c(C)c(C)cc2[nH]c(=O)c(=O)[nH]c12)S(C)(=O)=O [Example 11]
< 100	COC(=O)CN(c1c(C)c(C)cc2[nH]c(=O)c(=O)[nH]c12)S(C)(=O)=O [Example 10]

Reference: US5863917A, “Quinoxaline derivatives useful in therapy” (Pfizer, Inc., priority 1996, dated 1999)
